Reference: publication PMC9311798, “A Novel Class of Potent Anti-Tyrosinase Compounds with Antioxidant Activity, 2-(Substituted phenyl)-5-(trifluoromethyl)benzo[d]thiazoles: In Vitro and In Silico Insights” (Antioxidants, 2022)

Assays:
[1] = DPPH radical scavenging activity assay; conditions: compound 1.0 mM, 30 min in the dark, 517 nm
Experimental: The DPPH (2,2-diphenyl-1-picrylhydrazyl) scavenging activities of synthesized compounds 1a–1p were investigated as previously described, with minor modifications. A dimethyl sulfoxide solution (20 µL) containing 10 mM of each compound was mixed with DPPH methanol solution (0.2 mM, 180 µL) in the wells of a 96-well plate, and placed in the dark for 30 min at room temperature. At 517 nm, optical densities were measured using a microplate reader (VersaMax^TM, Molecular Devices, Sunnyvale, CA, USA). The DPPH radical scavenging ability of the 2-arylbenzothiazole derivatives was compared with that of L-ascorbic acid, the positive control. All experiments were performed independently in triplicate.

[2] = target: T1, mushroom tyrosinase (Agaricus bisporus, UniProt C7FF04); test: Mushroom tyrosinase inhibition assay; assay type: biochemical; conditions: L-tyrosine as substrate
T1 construct: purchased Sigma-Aldrich
Experimental: Mushroom tyrosinase inhibitory activity was determined as described previously, with minor modifications. L-Tyrosine was used as a substrate to determine enzyme activities. […] These dose-dependent inhibition experiments were carried out three times using three to five different concentrations of test compounds to determine IC50 values. Log–linear curves and their equations were derived from the observed percentages of inhibition.

[3] = test system: intracellular ROS in B16F10 cells; test: Intracellular ROS scavenging (DCFH-DA assay, SIN-1 induced); assay type: cell-based, murine; conditions: 20 µM, SIN-1 10 µM, trolox 20 µM positive control
Experimental: Intracellular ROS scavenging evaluation was performed as reported by Ali et al. and Lebel and Bondy. ROS generation was assessed using the ROS-sensitive fluorescence indicator DCFH-DA. Briefly, B16F10 cells were seeded in 96-well black plates (1 × 10^4 cell/well), incubated for 24 h, treated with compounds 1a–1p (20 µM in DMSO) for 2 h, stimulated with 10 µL of SIN-1 (100 µM in 50 mM sodium phosphate buffer, pH 7.4) for 1 h to induce ROS production, and then incubated with DCFH-DA (20 µM) for 30 min at 37 °C. Fluorescence was measured for 30 min at 5 min intervals at an excitation wavelength of 485 nm and emission wavelength of 535 nm, using a Berthold microplate reader (Berthold Technologies GmbH &Co., Wien, Austria).

[4] = ABTS radical scavenging activity assay; conditions: 100 µM, 2 min in the dark; for ABTS free radical scavenged (%): 734 nm
Experimental: At 734 nm, optical densities of the solutions were measured using a microplate reader (VersaMax^TM, Molecular Devices, Sunnyvale, CA, USA). The ABTS radical scavenging capacities of the 16 2-arylbenzothiazole derivatives were compared with trolox. All experiments were performed independently in triplicate.

T1 sequence (C7FF04 1-392 limits assumed): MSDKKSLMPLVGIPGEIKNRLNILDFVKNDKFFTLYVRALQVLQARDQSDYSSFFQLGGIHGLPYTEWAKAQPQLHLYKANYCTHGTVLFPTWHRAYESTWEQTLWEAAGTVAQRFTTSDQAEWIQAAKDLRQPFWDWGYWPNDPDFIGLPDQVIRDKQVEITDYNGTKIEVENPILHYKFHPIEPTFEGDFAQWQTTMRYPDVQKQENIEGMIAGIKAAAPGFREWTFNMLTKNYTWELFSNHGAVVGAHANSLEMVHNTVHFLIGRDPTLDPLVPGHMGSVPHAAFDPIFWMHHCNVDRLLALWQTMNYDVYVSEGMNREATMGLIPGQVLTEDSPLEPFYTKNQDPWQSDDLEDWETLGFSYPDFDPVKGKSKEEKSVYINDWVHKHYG

IC50 [2] [µM]	melting point [°C]	SMILES	DPPH radical scavenging activity [1]	intracellular ROS scavenging [3]	ABTS radical scavenging activity (in words) [4]	ABTS free radical scavenged (%) [4] [%]
> 300	220.6 to 222.6	COc1cc(-c2nc3cc(C(F)(F)F)ccc3s2)cc(OC)c1O [Compound 1l, 2,6-Dimethoxy-4-(5-(trifluoromethyl)benzo[d]thiazol-2-yl)phenol]	moderate DPPH radical scavenging efficacy			
> 300	175 to 176.5	Oc1ccccc1-c1nc2cc(C(F)(F)F)ccc2s1 [Compound 1g, 2-(5-(Trifluoromethyl)benzo[d]thiazol-2-yl)phenol]		scavenged intracellular ROS to a similar extent to trolox		
> 300		Oc1c(Br)cc(-c2nc3cc(C(F)(F)F)ccc3s2)cc1Br [Compound 1o, 2,6-Dibromo-4-(5-(trifluoromethyl)benzo[d]thiazol-2-yl)phenol]				
> 300	142.1 to 144.5	COc1ccc(-c2nc3cc(C(F)(F)F)ccc3s2)cc1O [Compound 1f, 2-Methoxy-5-(5-(trifluoromethyl)benzo[d]thiazol-2-yl)phenol]	moderate DPPH radical scavenging efficacy			
217 ± 32.7	256.7 to 260.6	Oc1cc(O)cc(-c2nc3cc(C(F)(F)F)ccc3s2)c1 [Compound 1n, 5-(5-(Trifluoromethyl)benzo[d]thiazol-2-yl)benzene-1,3-diol]	moderate DPPH radical scavenging efficacy	scavenged intracellular ROS to a similar extent to trolox	potently scavenged the ABTS radical	
> 300	140.4 to 141.6	COc1ccc(-c2nc3cc(C(F)(F)F)ccc3s2)c(OC)c1 [Compound 1i, 2-(2,4-Dimethoxyphenyl)-5-(trifluoromethyl)benzo[d]thiazole]				
102 ± 12.4		Oc1ccc(-c2nc3cc(C(F)(F)F)ccc3s2)cc1Br [Compound 1p, 2-Bromo-4-(5-(trifluoromethyl)benzo[d]thiazol-2-yl)phenol]		scavenged intracellular ROS to a similar extent to trolox		
129 ± 19.8		Cc1cc(-c2nc3cc(C(F)(F)F)ccc3s2)cc(C)c1O [Compound 1m, 2,6-Dimethyl-4-(5-(trifluoromethyl)benzo[d]thiazol-2-yl)phenol]	moderate DPPH radical scavenging efficacy			
264 ± 56.6	120.4 to 121.6	COc1ccc(-c2nc3cc(C(F)(F)F)ccc3s2)cc1OC [Compound 1j, 2-(3,4-Dimethoxyphenyl)-5-(trifluoromethyl)benzo[d]thiazole]				
> 300	267.3 to 269.4	Oc1ccc(-c2nc3cc(C(F)(F)F)ccc3s2)cc1O [Compound 1c, 4-(5-(Trifluoromethyl)benzo[d]thiazol-2-yl)benzene-1,2-diol]	greatest DPPH radical scavenging activity (comparable to L-ascorbic acid)	scavenged intracellular ROS far more potently than trolox	potently scavenged the ABTS radical	92.4
		Cc1c(C)c2c(c(C)c1O)CCC(C)(C(=O)O)O2 (stereo not drawn) [trolox, 6-hydroxy-2,5,7,8-tetramethylchroman-2-carboxylic acid, reference compound]				98.9
> 300	132.5 to 134	COc1cc(-c2nc3cc(C(F)(F)F)ccc3s2)cc(OC)c1OC [Compound 1k, 5-(Trifluoromethyl)-2-(3,4,5-trimethoxyphenyl)benzo[d]thiazole]				
> 300	117 to 117.8	CCOc1cc(-c2nc3cc(C(F)(F)F)ccc3s2)ccc1O [Compound 1e, 2-Ethoxy-4-(5-(trifluoromethyl)benzo[d]thiazol-2-yl)phenol]				
> 300	128.8 to 130.1	COc1ccc(-c2nc3cc(C(F)(F)F)ccc3s2)cc1 [Compound 1h, 2-(4-Methoxyphenyl)-5-(trifluoromethyl)benzo[d]thiazole]				
291 ± 63.8	155.7 to 159.9	COc1cc(-c2nc3cc(C(F)(F)F)ccc3s2)ccc1O [Compound 1d, 2-Methoxy-4-(5-(trifluoromethyl)benzo[d]thiazol-2-yl)phenol]	moderate DPPH radical scavenging efficacy			
